Laboratory results published in PMC5218480 (PLoS ONE, 2017).

System: MV-4-11 cells
Assay: Gene expression microarray analysis (Affymetrix PrimeView) and GSEA
Type: cell-based, human
Design: RFU PODN (11730768_x_at) / Fold change /veh PODN (11730768_x_at) / RFU LINC00158 (11744669_a_at) / Fold change /veh LINC00158 (11744669_a_at) / RFU DUSP10 (11751237_a_at) / Fold change /veh DUSP10 (11751237_a_at) / RFU ID3 (11757404_x_at) / Fold change /veh ID3 (11757404_x_at) / RFU PLEKHG5 (11737974_s_at) / Fold change /veh PLEKHG5 (11737974_s_at) / RFU LRRC4B (11730491_at) / Fold change /veh LRRC4B (11730491_at) / RFU GIMAP4 (11747438_a_at) / Fold change /veh GIMAP4 (11747438_a_at) / RFU KRT8 (11758183_x_at) / Fold change /veh KRT8 (11758183_x_at) / RFU CNN1 (11734310_a_at) / Fold change /veh CNN1 (11734310_a_at) / RFU VPS37D (11726825_at) / Fold change /veh VPS37D (11726825_at) / RFU C10orf10 (11716522_x_at) / Fold change /veh C10orf10 (11716522_x_at) / RFU KIR2DL2 /// KIR2DL4 /// KIR2DL5A /// KIR2DL5B /// KIR2DS1 /// KIR2DS2 /// KIR2DS3 /// KIR2DS4 /// KIR3DL3 /// KIR3DL3 /// KIR3DS1 (11738374_at) / Fold change /veh KIR2DL2 /// KIR2DL4 /// KIR2DL5A /// KIR2DL5B /// KIR2DS1 /// KIR2DS2 /// KIR2DS3 /// KIR2DS4 /// KIR3DL3 /// KIR3DL3 /// KIR3DS1 (11738374_at) / RFU C1QL1 (11718748_at) / Fold change /veh C1QL1 (11718748_at) / RFU TMPRSS4 (11747572_a_at) / Fold change /veh TMPRSS4 (11747572_a_at) / RFU HAMP (11756126_x_at) / Fold change /veh HAMP (11756126_x_at) / RFU RNFT2 (11725882_a_at) / Fold change /veh RNFT2 (11725882_a_at) / RFU NR4A2 (11747474_a_at) / Fold change /veh NR4A2 (11747474_a_at) / RFU ABCC12 (11746883_a_at) / Fold change /veh ABCC12 (11746883_a_at) / RFU TMEM136 (11760407_x_at) / Fold change /veh TMEM136 (11760407_x_at) / RFU CLDN22 /// WWC2 (11732394_at) / Fold change /veh CLDN22 /// WWC2 (11732394_at) / RFU HLA-DPB1 (11760878_x_at) / Fold change /veh HLA-DPB1 (11760878_x_at) / RFU SPINT1 (11716480_a_at) / Fold change /veh SPINT1 (11716480_a_at) / RFU GAP43 (11754022_s_at) / Fold change /veh GAP43 (11754022_s_at) / RFU A4GNT (11735810_at) / Fold change /veh A4GNT (11735810_at) / RFU PRB3 (11715151_x_at) / Fold change /veh PRB3 (11715151_x_at) / RFU TUBB4B (11761932_at) / Fold change /veh TUBB4B (11761932_at) / RFU CAPN14 (11732068_a_at) / Fold change /veh CAPN14 (11732068_a_at) / RFU TMCC2 (11721928_a_at) / Fold change /veh TMCC2 (11721928_a_at) / RFU IRGQ (11745062_a_at) / Fold change /veh IRGQ (11745062_a_at) / RFU FAM174B (11720279_a_at) / Fold change /veh FAM174B (11720279_a_at) / RFU TMPRSS4 (11748680_a_at) / Fold change /veh TMPRSS4 (11748680_a_at) / RFU FAM212B (11763350_a_at) / Fold change /veh FAM212B (11763350_a_at) / RFU PLEKHG5 (11743358_a_at) / Fold change /veh PLEKHG5 (11743358_a_at) / RFU ZSCAN30 (11745921_a_at) / Fold change /veh ZSCAN30 (11745921_a_at) / RFU CMKLR1 (11741424_a_at) / Fold change /veh CMKLR1 (11741424_a_at) / RFU LOC101060620 /// MAPK8IP1 (11723275_at) / Fold change /veh LOC101060620 /// MAPK8IP1 (11723275_at) / RFU SPTSSB (11747773_x_at) / Fold change /veh SPTSSB (11747773_x_at) / RFU PRSS12 (11739890_at) / Fold change /veh PRSS12 (11739890_at) / RFU BIN1 (11741810_x_at) / Fold change /veh BIN1 (11741810_x_at) / RFU WNT11 (11732464_a_at) / Fold change /veh WNT11 (11732464_a_at) / RFU C10orf10 (11716521_a_at) / Fold change /veh C10orf10 (11716521_a_at) / RFU C5orf56 (11738089_at) / Fold change /veh C5orf56 (11738089_at) / RFU CYB561 (11721691_x_at) / Fold change /veh CYB561 (11721691_x_at) / RFU ANKRD19P (11752326_a_at) / Fold change /veh ANKRD19P (11752326_a_at) / RFU OR2T12 /// OR2T33 /// OR2T8 (11738714_s_at) / Fold change /veh OR2T12 /// OR2T33 /// OR2T8 (11738714_s_at) / RFU VCAN (11748164_a_at) / Fold change /veh VCAN (11748164_a_at) / RFU JSRP1 (11732532_at) / Fold change /veh JSRP1 (11732532_at) / RFU KRTAP10-11 (11738290_x_at) / Fold change /veh KRTAP10-11 (11738290_x_at) / RFU MYO3A (11730013_a_at) / Fold change /veh MYO3A (11730013_a_at) / RFU EBF3 (11725865_a_at) / Fold change /veh EBF3 (11725865_a_at) / RFU CAMK2N1 (11719241_x_at) / Fold change /veh CAMK2N1 (11719241_x_at) / RFU C5orf56 (11738088_a_at) / Fold change /veh C5orf56 (11738088_a_at) / RFU OLFML3 (11715873_a_at) / Fold change /veh OLFML3 (11715873_a_at) / RFU LOC100653217 /// NTM (11731650_a_at) / Fold change /veh LOC100653217 /// NTM (11731650_a_at) / RFU MAPK11 (11762145_a_at) / Fold change /veh MAPK11 (11762145_a_at) / RFU FIZ1 (11724087_x_at) / Fold change /veh FIZ1 (11724087_x_at) / RFU OASL (11726364_x_at) / Fold change /veh OASL (11726364_x_at) / RFU SOX15 (11748057_x_at) / Fold change /veh SOX15 (11748057_x_at) / RFU CD79A (11719716_a_at) / Fold change /veh CD79A (11719716_a_at) / RFU HIST1H1D (11736915_at) / Fold change /veh HIST1H1D (11736915_at) / RFU CASKIN2 (11723855_a_at) / Fold change /veh CASKIN2 (11723855_a_at) / RFU LOC730098 (11760151_x_at) / Fold change /veh LOC730098 (11760151_x_at) / RFU OR4N2 (11742367_at) / Fold change /veh OR4N2 (11742367_at) / RFU PRRT2 (11749266_a_at) / Fold change /veh PRRT2 (11749266_a_at) / RFU SNX32 (11753110_a_at) / Fold change /veh SNX32 (11753110_a_at) / RFU CDHR5 (11726645_a_at) / Fold change /veh CDHR5 (11726645_a_at) / RFU RCAN1 (11760418_a_at) / Fold change /veh RCAN1 (11760418_a_at) / RFU FAM167A (11723789_a_at) / Fold change /veh FAM167A (11723789_a_at) / RFU FAM26E (11764081_at) / Fold change /veh FAM26E (11764081_at) / RFU ISYNA1 (11749810_s_at) / Fold change /veh ISYNA1 (11749810_s_at) / RFU ACY1 (11761880_at) / Fold change /veh ACY1 (11761880_at) / RFU 11764098_at / Fold change /veh 11764098_at / RFU SAMD14 (11745864_x_at) / Fold change /veh SAMD14 (11745864_x_at) / RFU NPB (11741838_a_at) / Fold change /veh NPB (11741838_a_at) / RFU TMPRSS6 (11731388_a_at) / Fold change /veh TMPRSS6 (11731388_a_at) / RFU KRTAP10-2 (11738614_at) / Fold change /veh KRTAP10-2 (11738614_at) / RFU ARHGAP8 /// PRR5-ARHGAP8 (11727945_x_at) / Fold change /veh ARHGAP8 /// PRR5-ARHGAP8 (11727945_x_at) / RFU KRTAP5-7 /// NADSYN1 (11734609_at) / Fold change /veh KRTAP5-7 /// NADSYN1 (11734609_at) / RFU RASL12 (11751679_a_at) / Fold change /veh RASL12 (11751679_a_at) / RFU CDKN2B (11736163_a_at) / Fold change /veh CDKN2B (11736163_a_at) / RFU PRF1 (11729649_at) / Fold change /veh PRF1 (11729649_at) / RFU, ZNF638 /// ZNF638-IT1 / Fold change vs veh, ZNF638 /// ZNF638-IT1 / RFU, PANK3 / Fold change vs veh, PANK3 / RFU, SH3YL1 / Fold change vs veh, SH3YL1 / RFU, ZEB2 / Fold change vs veh, ZEB2 / RFU, NRIP1 / Fold change vs veh, NRIP1 / RFU, PTTG1IP / Fold change vs veh, PTTG1IP / RFU, CAPN2 / Fold change vs veh, CAPN2 / RFU, MED14 / Fold change vs veh, MED14 / RFU, SNORA58 / Fold change vs veh, SNORA58 / RFU, C1orf63 / Fold change vs veh, C1orf63 / RFU, LRRFIP1 / Fold change vs veh, LRRFIP1 / RFU, NDUFAF7 / Fold change vs veh, NDUFAF7 / RFU, SLC12A2 / Fold change vs veh, SLC12A2 / RFU, IBTK / Fold change vs veh, IBTK / RFU, ESF1 / Fold change vs veh, ESF1 / Fold change vs veh, TMEM50B / RFU, TAOK1 / Fold change vs veh, TAOK1 / RFU, ACBD3 / Fold change vs veh, ACBD3 / RFU, TMA16 / Fold change vs veh, TMA16 / RFU, RWDD3 / Fold change vs veh, RWDD3 / RFU, BCAT1 / Fold change vs veh, BCAT1 / RFU, EDEM3 / Fold change vs veh, EDEM3 / RFU, TMEM33 / Fold change vs veh, TMEM33 / RFU, WDR75 / Fold change vs veh, WDR75 / RFU, AHCTF1 / Fold change vs veh, AHCTF1 / RFU, TFRC / Fold change vs veh, TFRC / RFU, ZDHHC17 / Fold change vs veh, ZDHHC17 / RFU, NOM1 / Fold change vs veh, NOM1 / RFU, ARL8B / Fold change vs veh, ARL8B / RFU, ZBTB11 / Fold change vs veh, ZBTB11 / RFU, TAMM41 / Fold change vs veh, TAMM41 / RFU, KIAA1704 /// LOC100996395 / Fold change vs veh, KIAA1704 /// LOC100996395 / RFU, ING1 / Fold change vs veh, ING1 / RFU, TRMT61B / Fold change vs veh, TRMT61B / RFU, FUBP3 / Fold change vs veh, FUBP3 / RFU, TP53 / Fold change vs veh, TP53 / RFU, TNKS2 / Fold change vs veh, TNKS2 / RFU, ZFP14 / Fold change vs veh, ZFP14 / RFU, ACTR2 / Fold change vs veh, ACTR2 / RFU, PPP3R1 / Fold change vs veh, PPP3R1 / RFU, PIK3R1 / Fold change vs veh, PIK3R1 / RFU, HNRNPA1 / Fold change vs veh, HNRNPA1 / RFU, RNF170 / Fold change vs veh, RNF170 / RFU, ZNF28 / Fold change vs veh, ZNF28 / RFU, RNGTT / Fold change vs veh, RNGTT / RFU, OGT / Fold change vs veh, OGT / RFU, BRD1 / Fold change vs veh, BRD1 / RFU, MARS / Fold change vs veh, MARS / RFU, ZNF655 / Fold change vs veh, ZNF655 / RFU, FAHD1 / Fold change vs veh, FAHD1 / RFU, BDP1 / Fold change vs veh, BDP1 / RFU, LRRCC1 / Fold change vs veh, LRRCC1 / RFU, ARID1A / Fold change vs veh, ARID1A / RFU, ZNF146 / Fold change vs veh, ZNF146 / RFU, ZNF330 / Fold change vs veh, ZNF330 / RFU, GPN3 / Fold change vs veh, GPN3 / RFU, C9orf123 / Fold change vs veh, C9orf123 / RFU, N4BP2L2 / Fold change vs veh, N4BP2L2 / RFU, ARFIP1 / Fold change vs veh, ARFIP1 / RFU, FAM179B / Fold change vs veh, FAM179B / RFU, BCL10 / Fold change vs veh, BCL10 / RFU, UHRF1BP1L / Fold change vs veh, UHRF1BP1L / RFU, BET1 / Fold change vs veh, BET1 / RFU, CNOT2 / Fold change vs veh, CNOT2 / RFU, ZNF268 / Fold change vs veh, ZNF268 / Fold change vs veh, ZNF507 / RFU, DGCR2 / Fold change vs veh, DGCR2 / RFU, WDSUB1 / Fold change vs veh, WDSUB1 / Fold change vs veh, HSP90B1 /// MIR3652 / RFU, ADSS / Fold change vs veh, ADSS / RFU, GK / Fold change vs veh, GK / RFU, ZNF148 / Fold change vs veh, ZNF148 / RFU, TAF9 / Fold change vs veh, TAF9 / RFU, SLC1A5 / Fold change vs veh, SLC1A5 / RFU, SLMO2 / Fold change vs veh, SLMO2 / RFU, ABCC4 / Fold change vs veh, ABCC4 / RFU, LOC101060439 /// RAP1B / Fold change vs veh, LOC101060439 /// RAP1B / RFU, RFX7 / Fold change vs veh, RFX7 / RFU, GTPBP10 / Fold change vs veh, GTPBP10 / RFU, CNEP1R1 / Fold change vs veh, CNEP1R1 / RFU, BIVM-ERCC5 /// ERCC5 / Fold change vs veh, BIVM-ERCC5 /// ERCC5 / RFU, ILF3 / Fold change vs veh, ILF3 / RFU 11762660_at / Fold change /veh 11762660_at / RFU VCAN (11757783_s_at) / Fold change /veh VCAN (11757783_s_at) / RFU DDX43 (11728927_at) / Fold change /veh DDX43 (11728927_at) / RFU KRT8 (11758188_x_at) / Fold change /veh KRT8 (11758188_x_at) / RFU NKD1 (11759106_at) / Fold change /veh NKD1 (11759106_at) / RFU SRD5A1 (11742802_a_at) / Fold change /veh SRD5A1 (11742802_a_at) / RFU TPSAB1 /// TPSB2 (11721975_s_at) / Fold change /veh TPSAB1 /// TPSB2 (11721975_s_at) / RFU GSTM3 (11746129_a_at) / Fold change /veh GSTM3 (11746129_a_at) / RFU IL23R (11737362_x_at) / Fold change /veh IL23R (11737362_x_at) / RFU TMEM51 (11727254_a_at) / Fold change /veh TMEM51 (11727254_a_at) / RFU PIWIL2 (11732686_x_at) / Fold change /veh PIWIL2 (11732686_x_at) / RFU ORM1 (11744905_x_at) / Fold change /veh ORM1 (11744905_x_at) / RFU CCDC152 (11743942_at) / Fold change /veh CCDC152 (11743942_at) / RFU ECM1 (11717891_a_at) / Fold change /veh ECM1 (11717891_a_at) / RFU IL23R (11748794_a_at) / Fold change /veh IL23R (11748794_a_at) / RFU TNFAIP8L3 (11732012_x_at) / Fold change /veh TNFAIP8L3 (11732012_x_at) / RFU MBOAT4 (11741988_at) / Fold change /veh MBOAT4 (11741988_at) / RFU 11764193_at / Fold change /veh 11764193_at / RFU TMEM53 (11763286_at) / Fold change /veh TMEM53 (11763286_at) / RFU MAGEB2 (11727129_at) / Fold change /veh MAGEB2 (11727129_at) / RFU TMEM200A (11744735_a_at) / Fold change /veh TMEM200A (11744735_a_at) / RFU CCDC152 (11751479_a_at) / Fold change /veh CCDC152 (11751479_a_at) / RFU FAM211A (11726209_a_at) / Fold change /veh FAM211A (11726209_a_at) / RFU RGS16 (11746705_a_at) / Fold change /veh RGS16 (11746705_a_at) / RFU VCAN (11755009_s_at) / Fold change /veh VCAN (11755009_s_at) / RFU RHOB (11743442_s_at) / Fold change /veh RHOB (11743442_s_at) / RFU RGS16 (11720943_a_at) / Fold change /veh RGS16 (11720943_a_at) / RFU RGS16 (11720944_at) / Fold change /veh RGS16 (11720944_at) / RFU, VPS4B / Fold change vs veh, VPS4B / RFU, CREB1 / Fold change vs veh, CREB1 / RFU, DNAJC13 / Fold change vs veh, DNAJC13 / RFU, GNAQ / Fold change vs veh, GNAQ / RFU, CDK5R1 / Fold change vs veh, CDK5R1 / RFU, ZRANB3 / Fold change vs veh, ZRANB3 / RFU, CUL4A / Fold change vs veh, CUL4A / RFU, CCNY / Fold change vs veh, CCNY / RFU, UFL1 / Fold change vs veh, UFL1 / RFU, COG3 / Fold change vs veh, COG3 / RFU, DIAPH2 / Fold change vs veh, DIAPH2 / RFU, SKA2 / Fold change vs veh, SKA2 / RFU, AFF3 / Fold change vs veh, AFF3 / RFU, LMF1 / Fold change vs veh, LMF1 / RFU, IPO11 / Fold change vs veh, IPO11 / RFU, DFFB / Fold change vs veh, DFFB / RFU, FOXP1 / Fold change vs veh, FOXP1 / RFU, CARD8 / Fold change vs veh, CARD8 / RFU, STRN3 / Fold change vs veh, STRN3 / RFU, ADK / Fold change vs veh, ADK / RFU, RASSF2 / Fold change vs veh, RASSF2 / RFU, WIPF1 / Fold change vs veh, WIPF1 / RFU, LARP1B / Fold change vs veh, LARP1B / RFU, RASA1 / Fold change vs veh, RASA1 / RFU, RB1 / Fold change vs veh, RB1 / RFU, PPFIA1 / Fold change vs veh, PPFIA1 / RFU, MAT2A / Fold change vs veh, MAT2A / RFU, CCT5 / Fold change vs veh, CCT5 / RFU, WDR92 / Fold change vs veh, WDR92 / RFU, CUX1 / Fold change vs veh, CUX1 / RFU, TTC7A / Fold change vs veh, TTC7A / RFU, TMEM135 / Fold change vs veh, TMEM135 / RFU, DEPTOR / Fold change vs veh, DEPTOR / RFU, CPM / Fold change vs veh, CPM / RFU, DNAJB6 / Fold change vs veh, DNAJB6 / RFU, CACNA2D3 / Fold change vs veh, CACNA2D3 / RFU, DTX4 / Fold change vs veh, DTX4 / RFU, TFCP2 / Fold change vs veh, TFCP2 / RFU, GMCL1 /// GMCL1P1 / Fold change vs veh, GMCL1 /// GMCL1P1 / RFU, AEBP2 / Fold change vs veh, AEBP2 / RFU, SNHG1 /// SNORD22 /// SNORD25 /// SNORD26 /// SNORD27 /// SNORD28 /// SNORD29 /// SNORD31 / Fold change vs veh, SNHG1 /// SNORD22 /// SNORD25 /// SNORD26 /// SNORD27 /// SNORD28 /// SNORD29 /// SNORD31 / Fold change (Aza/veh), C12orf56 (ProbeSet 11735607_a_at) / Fold change (ACY-1035/veh), C12orf56 (ProbeSet 11735607_a_at) / Fold change (Aza/veh), FGFR1OP (ProbeSet 11751329_s_at) / Fold change (ACY-1035/veh), FGFR1OP (ProbeSet 11751329_s_at) / Fold change (Aza/veh), VPS36 (ProbeSet 11739960_a_at) / Fold change (ACY-1035/veh), VPS36 (ProbeSet 11739960_a_at) / RFU SYPL1 (11715823_x_at) / Fold change /veh SYPL1 (11715823_x_at) / RFU IGFBP7 (11715501_s_at) / Fold change /veh IGFBP7 (11715501_s_at) / RFU REEP3 (11722064_at) / Fold change /veh REEP3 (11722064_at) / RFU IGLL1 (11728026_x_at) / Fold change /veh IGLL1 (11728026_x_at): dose or concentration left out as unconfirmed
Settings: ProbeSet 11764057_s_at; LIST B

**Q.** Which “Fold change vs veh, C1orf63” value does the source give for `Nc1ccc(-c2cccs2)cc1NC(=O)c1ccc2c(c1)cc(C1CC1)n2CCN1CCOCC1` [ACY-1035] here?
**A.** 0.95
